Measurements reported in US10913224B2, “Ophthalmic devices for delivery of hydrophobic comfort agents” (Novartis AG, priority 2008, dated 2021).
“And” between values parts separate entries of the source, which are not always exact repeats. Equal entries are not always repeated.

What was measured:
Type in all cases: physicochemical
[1] = Control lenses: DMPC loading of Example 3 lenses (enzymatic assay); settings: control lenses of Example 3, no release test, n=5
Text: Lenses are demolded and extracted with an organic solvent (e.g., isopropanol, 1-propanol, Dowanol, methyl ethyl ketone (MEK), or the like) and then dipped in a Dowanol PM (or alternatively MEK or 1-propanol) solution of polyacrylic acid (0.1% by weight, pH ˜2.0). The lenses are then rinsed for 60 seconds in water and then dipped in a Dowanol (or alternatively MEK or 1-propanol) solution of 1,2-dimyristoyl-sn-glycero-3-phosphocholine (DMPC, 1%) for about 60 to about 100 seconds. The lenses are then rinsed in water for 120 seconds and packaged in PBS. Lenses are then autoclaved for 30 min at 121° C. The second test is designed to try to maximize the amount of DM PC in ATF by leaving the lens in ATF for the entire release test. A single lens is placed in 1 mL ATF and incubated at 35° C. for 8 hrs. Every 30 min, the sample is vortexed and then returned to the incubator. At the conclusion of 8 hrs, the lens is removed from the ATF and the ATF is submitted for analysis. All analysis is done using an enzymatic assay method. A control set of lenses is submitted to confirm loading of the lenses with DMPC. This control sample set (n=5) show an average loading of 200 μg DMPC per lens.

[2] = First release test: lens in artificial tear fluid (ATF) refreshed every 30 min, DMPC left in lens; settings: first test: 500 μL ATF replaced every 30 min, 35° C., 8 hrs, n=5
Experimental: Lenses (as prepared in Example 3) are subjected to one of two release tests in artificial tear fluid (ATF) prepared without any phospholipids and having a composition shown in Table 1. The first test is designed to maximize release of DMPC from the lens by refreshing the ATF frequently. A single lens is placed in 500 μL of ATF and incubated at 35° C. for 8 hrs. Every 30 min, the sample is vortexed, the ATF is withdrawn, a fresh 500 μL aliquot of ATF is added to the lens, the sample is again vortexed, and the sample is returned to the incubator. At the conclusion of 8 hrs, the lenses are removed from ATF, placed in 1 mL clean PBS, and submitted for analysis of DMPC content. The second test is designed to try to maximize the amount of DM PC in ATF by leaving the lens in ATF for the entire release test. A single lens is placed in 1 mL ATF and incubated at 35° C. for 8 hrs. Every 30 min, the sample is vortexed and then returned to the incubator. At the conclusion of 8 hrs, the lens is removed from the ATF and the ATF is submitted for analysis. All analysis is done using an enzymatic assay method.

[3] = Second release test: lens left in ATF for 8 hrs, DMPC in ATF; settings: second test: 1 mL ATF, 35° C., 3 pooled ATF samples, just below dynamic range of the assay
Experimental: Lenses (as prepared in Example 3) are subjected to one of two release tests in artificial tear fluid (ATF) prepared without any phospholipids and having a composition shown in Table 1. The second test is designed to try to maximize the amount of DM PC in ATF by leaving the lens in ATF for the entire release test. A single lens is placed in 1 mL ATF and incubated at 35° C. for 8 hrs. Every 30 min, the sample is vortexed and then returned to the incubator. At the conclusion of 8 hrs, the lens is removed from the ATF and the ATF is submitted for analysis. All analysis is done using an enzymatic assay method. Three ATF samples are pooled to increase the DMPC signal. […] The value for the 3 pooled samples is just below the dynamic range of the assay, making confidence in the quantified DMPC levels difficult yet still providing evidence of DMPC release from the lenses.

[4] = Total content of radio-labeled DMPC in lenses (extraction, scintillation counting); settings: radio labeled DMPC (C14) loaded from 1-propanol
Experimental: (§1) Lenses are prepared according to the procedures described in Example 3, except that DMPC used in this example is a radio labeled DMPC (C14). The radio labeled DMPC is supplied by New England Nuclear (Waltham, Mass.). Lenses are loaded with radio-labeled DMPC by dipping the lenses into a solution of the radio-labeled DMPC in 1-propanol. Loaded lenses are then subjected to release testing using artificial tear fluid (ATF) as the release media. Components listed in Table 2 are dissolved in a phosphate buffered saline solution to provide a physiologically acceptable pH and osmolality.
The DMPC content of the lenses is also measured using one of two techniques: • (1) Lenses that had previously been subjected to release testing are fully extracted and the eluate is then analyzed for DMPC content. This amount of DMPC is numerically added to the DMPC already quantified in the release media. Thus, all DMPC is accounted for, cradle-to-grave. • (2) Other lenses, not subject to release testing, are also extracted to determine initial DMPC content (total loading of DM PC in lenses).

[5] = Release of radio-labeled DMPC from lens into ATF over 24 hours (scintillation counter); settings: 1 mL ATF, radio labeled DMPC (C14)
Experimental: as §1
Release tests are conducted by placing a single lens in 1 mL of ATF and then incubating the sample for 24 hours. At specified time points of 0, 2, 4, 10, and 24 hours, small samples of release media are pulled and analyzed for DM PC content using a scintillation counter (C14 emits a weak beta particle).

[6] = Comfort agent content of Example 6 lenses (exhaustive isopropanol extraction); settings: comfort agent added to lens formulation, after autoclave
Experimental: A lens formulation is prepared as detailed in Example 3 where 1,2-dimyristoyl-sn-glycero-3-phosphocholine (DMPC) is added to the formulation at a concentration of 0.75% by weight and where the formulation solvent, 1-propanol, is reduced to 22.65% by weight. Lens curing is as described in Example 3. The lenses are demolded and then extracted in methyl ethyl ketone followed by a rinse in DI water for 56 seconds. The lenses are then dipped in a solution of polyacrylic acid (0.36% wt/vol in 1-propanol, pH-2). The lenses are then rinsed in water for 120 seconds and packaged in phosphate buffered saline. Lenses are then autoclaved for 30 minutes at 121° C. The content of comfort agents, DMPC and L-PEG, are determined as follows. Lenses are exhaustively extracted in isopropanol and the extract is tested for DMPC and N-(carbonyl-methoxypolyethylene glycol-2000)-1,2-disteaoyl-sn-glycero-3-phosphoethanolamine, sodium salt (L-PEG-2000) content. Lenses contain on average 30 μg DMPC and 10 μg L-PEG-2000 per lens.

[7] = Release of DMPC from pooled Example 6 lenses into ATF, 24 hours, HPLC; settings: pooled lenses (35 lenses in 3.5 mL ATF and 50 lenses in 5 mL ATF), 37° C.
Experimental: The release profile of contact lenses with comfort agents (DMPC and L-PEG) are determined as follows. Lenses are placed in release media (artificial tear fluid (ATF) as described in Example 4) for release testing. Lenses are pooled (35 lenses in 3.5 mL ATF and 50 lenses in 5 mL ATF) and then gently agitated at 37° C. for 24 hours. At the conclusion of the 24-hour release study, the lenses are removed from the ATF. The remaining ATF is then transferred to centrifuge tubes and dried overnight under vacuum in a centrifugal evaporator.
The dried residue from the ATF is then resuspended in 1-propanol (1 mL 1-propanol for each original 5 mL ATF) using sonication to assist in resuspension. The resulting solution is analyzed for presence of DMPC using HPLC.

CCCCCCCCCCCCCC(=O)OC[C@H](COP(=O)([O-])OCC[N+](C)(C)C)OC(=O)CCCCCCCCCCCCC [DMPC, 1,2-dimyristoyl-sn-glycero-3-phosphocholine]
average loading of DMPC per lens [1]: 200 μg DMPC per lens
average DMPC content of lens after release [2]: 177 μg DMPC per lens
DMPC in the ATF equivalent per lens [3]: 6 μg DM PC per lens
total DMPC content of the lenses [4]: 32.1±2.7 micrograms of DMPC per lens
DMPC release order ([5]; 0-24 hours): first order
average cumulative DMPC release from the lens ([5]; 24-hour test period, eight samples): 1.3 µg
average content per lens [6]: 30 μg per lens
DMPC in ATF after release [7]: 0.48 μg per mL ATF and 0.69 μg per mL ATF

N-(carbonyl-methoxypolyethylene glycol-2000)-1,2-distearoyl-sn-glycero-3-phosphoethanolamine sodium salt [L-PEG-2000]
average content per lens [6]: 10 μg per lens
